Laboratory results taken from US20250230154A1, “COMPOUND HAVING SHP2 PROTEIN DEGRADING ACTIVITY, AND MEDICAL USES THEREOF” (UBIX THERAPEUTICS, INC., priority 2021, published 2025).

Target: T1, SHP2 protein (Homo sapiens, UniProt Q06124)
T1 sequence (Q06124 1-593): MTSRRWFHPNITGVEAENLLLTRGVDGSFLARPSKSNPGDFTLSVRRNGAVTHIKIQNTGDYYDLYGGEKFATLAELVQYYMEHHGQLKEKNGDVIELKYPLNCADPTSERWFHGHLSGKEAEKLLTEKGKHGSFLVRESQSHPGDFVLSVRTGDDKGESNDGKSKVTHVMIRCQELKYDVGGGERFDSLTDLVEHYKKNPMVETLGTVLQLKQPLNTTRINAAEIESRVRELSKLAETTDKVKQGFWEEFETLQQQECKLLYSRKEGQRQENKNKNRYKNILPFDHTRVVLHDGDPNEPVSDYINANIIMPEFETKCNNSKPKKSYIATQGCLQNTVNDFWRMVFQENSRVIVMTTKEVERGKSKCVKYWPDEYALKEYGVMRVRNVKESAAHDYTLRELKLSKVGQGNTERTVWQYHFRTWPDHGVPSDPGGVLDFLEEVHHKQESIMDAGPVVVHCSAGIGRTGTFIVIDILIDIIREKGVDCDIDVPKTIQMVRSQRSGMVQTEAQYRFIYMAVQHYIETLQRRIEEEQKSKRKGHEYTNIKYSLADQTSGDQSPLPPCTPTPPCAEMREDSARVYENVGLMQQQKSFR
Assay: Measurement of SHP2 protein degradation in MV-4-11 cells (western blotting)
Type: cell-based
Parameters: endogenous in cells; host or cells: MV-4-11
Conditions: for SHP2 degradation (%) 10 nM / SHP2 degradation (%) 100 nM / SHP2 degradation (%) 1000 nM: MV-4-11 cells, 24 hours
Description: Experimental Example 2: Measurement of SHP2 Protein Degradation in MV-4-11 Cells
MV-4-11 cells were treated with the synthesized Example compound, and the amount of SHP2 protein present in the cells was measured using western blotting detection. The protocol of the experiment conducted using MV-4-11 cells was as follows:
[Culture] MV-4-11 cells resuspended in IMDM MEDIUM (Hyclone, SH30228.01) containing 5% FBS (Hyclone, SV30207.02) and 1% Penicillin-streptomycin (Welgene, LS 202-02) were seeded at a density of 1×10^6/mL/well in a 12-well plate in an amount of 1 ml each.
[Compound treatment] The 12-well plate was treated as follows: Cells were treated with compounds at a final concentration of […] made by serial dilution of 10 mM stock with DMSO in 1/100 increments […]. After 24 hours, cells were harvested. For the negative control group, DMSO diluted 1/100 to the media (3 mL DMSO+297 mL media) was added.
[Harvest] Each well was collected in a 1.5 mL microtube by pipetting with a 1 mL pipette and centrifuged (500 g, 5 min, 4° C.). The supernatant was removed. It was washed with PBS, and then centrifuged again (500 g, 5 min, 4° C.). Thereafter, the supernatant was removed to prepare a pellet.
[Cell Lysis and Sample preparation] Lysis buffer was prepared as follows: […] of RIPA buffer (Biosesang, RC2038-050-00)+0.5 mM PMSF (SIGMA, P7626)+1× Protease/Phosphatase Inhibitor (Cell signaling, 5872S) per well was added and placed on ice for 30 minutes (vortexing at 0 and 30 minutes, respectively). After sonication process (10 seconds pulse, 30 seconds rest, 5 cycles, 70% amplification), centrifugation (15000 g, 15 min, 4° C.) was performed, and then only the supernatant was taken and transferred to a microtube. The sample was diluted ¼ with RIPA buffer in a 96-well plate, and mixed with A:B=50:1 of the BCA Protein Assay Kit (iNtRON, 21071). […] each of the mixture was left at 37° C. for 30 minutes, and cooled for 10 minutes. Then, absorbance was measured at 562 nm with the SYNERGY H1 microplate reader from BioTek. After making a sample by quantifying the protein with the measured value, boiling was performed at 70° C. for 10 minutes. At this time, the sample buffer used was a mixture of NuPAGE or Bolt 4× sample buffer (Invitrogen) and each 10× sample reducing agent according to the gel to be used, and RIPA buffer was used for protein dilution.
[Western blotting detection method] The same amount of sample was loaded on NuPAGE or Bolt Bis-tris 4-12% gradient gel and run (200 V, 35 minutes). It was transferred to 0.2 mm NC membrane with Trans-blot Turbo (BIO-RAD) (1.3 A constant, 25 V limit, 15 minutes). Blocking was performed at room temperature for 1 hour with Skim milk or Intercept Blocking Buffer (LI-COR, 927-60001):0.1% TBST=1:1. Anti-SHPTP2 Mouse (1:500 in 2% BSA/0.2% TBST, size: 70 kDa, Santacruz sc-7384) was incubated overnight at 4° C., and Anti-GAPDH Rabbit (1:2,000 in 2% BSA/0.2% TBST, size: 37 kDa, CST #2118) was incubated at room temperature for 1 hour 30 minutes or 3 hours. It was washed 3 times for 5 minutes each with 0.2% TBST washing buffer. Secondary antibody Anti-Rabbit IgG (1:5,000 in 2% BSA/0.2% TBST, CST), IRDye® 680RD Goat anti-Rabbit IgG Secondary Antibody (1:10,000 in 2% BSA/0.2% TBST, LI-COR 926-68071) were added and incubated for 45 minutes on a rocker at room temperature. It was washed 5 times for 5 minutes each with 0.2% TBST washing buffer and detected with LI-COR's Odyssey. At this time, SHPTP2 was detected using SuperSignal West Pico PLUS Chemiluminescent Substrate, and house-keeping genes were also detected.
In the results of Table 4 below, Compounds 1-7, 13-19, and 21-26 are results in KYSE-520 cells, and the others are results in MV-4-11 cells.

## Cc1ncsc1-c1ccc(CNC(=O)[C@@H]2C[C@@H](O)CN2C(=O)[C@@H](NC(=O)C2(F)CC2)C(C)(C)C)c(OCC2CCN(C(=O)CC(=O)Nc3cccc(Sc4cnc(N5CCC(C)(N)CC5)cn4)c3Cl)CC2)c1 [Example 29, (2S,4R)—N-(2-((1-(3-((3-((5-(4-amino-4-methylpiperidin-1-yl)pyrazin-2-yl)thio)-2-chlorophenyl)amino)-3-oxopropanoyl)piperidin-4-yl)methoxy)-4-(4-methylthiazol-5-yl)benzyl)-1-((S)-2-(1-fluorocyclopropane-1-carboxamido)-3,3-dimethylbutanoyl)-4-hydroxypyrrolidine-2-carboxamide]
  SHP2 degradation (%) 10 nM: 84%
  SHP2 degradation (%) 100 nM: 95.5%

## Cc1ncsc1-c1ccc(CNC(=O)[C@@H]2C[C@@H](O)CN2C(=O)[C@@H](NC(=O)C2(F)CC2)C(C)(C)C)c(OCCN2CCN(c3ncc(C(=O)Nc4cccc(Sc5cnc(N6CCC(C)(CN)CC6)cn5)c4Cl)cn3)CC2)c1 [Example 84, N-(3-((5-(4-(aminomethyl)-4-methylpiperidin-1-yl)pyrazin-2-yl)thio)-2-chlorophenyl)-2-(4-(2-(2-(((2S,4R)-1-((S)-2-(1-fluorocyclopropane-1-carboxamido)-3,3-dimethylbutanoyl)-4-hydroxypyrrolidine-2-carboxamido)methyl)-5-(4-methylthiazol-5-yl)phenoxy)ethyl)piperazin-1-yl)pyrimidine-5-carboxamide]
  SHP2 degradation (%) 10 nM: 48.7%
  SHP2 degradation (%) 100 nM: 97.1%

## Cc1ncsc1-c1ccc(CNC(=O)[C@@H]2C[C@@H](O)CN2C(=O)[C@@H](NC(=O)C2(F)CC2)C(C)(C)C)c(OCCC2CCN(C(=O)C(C)(C)C(=O)Nc3cccc(Sc4cnc(N5CCC(C)(CN)CC5)cn4)c3Cl)CC2)c1 [Example 49, (2S,4R)—N-(2-(2-(1-(3-((3-((5-(4-(aminomethyl)-4-methylpiperidin-1-yl)pyrazin-2-yl)thio)-2-chlorophenyl)amino)-2,2-dimethyl-3-oxopropanoyl)piperidin-4-yl)ethoxy)-4-(4-methylthiazol-5-yl)benzyl)-1-((S)-2-(1-fluorocyclopropane-1-carboxamido)-3,3-dimethylbutanoyl)-4-hydroxypyrrolidine-2-carboxamide]
  SHP2 degradation (%) 10 nM: 4.0%
  SHP2 degradation (%) 100 nM: 10.6%
Comment on Table 4
  SHP2 protein degradation activity (in words): somewhat decreased

## Cc1ncsc1-c1ccc(CNC(=O)[C@@H]2C[C@@H](O)CN2C(=O)[C@@H](NC(=O)C2(F)CC2)C(C)(C)C)c(OCCN2CCN(c3ccc(C(=O)Nc4cccc(Sc5cnc(N6CCC(C)(CN)CC6)cn5)c4Cl)nc3)CC2)c1 [Example 81, N-(3-((5-(4-(aminomethyl)-4-methylpiperidin-1-yl)pyrazin-2-yl)thio)-2-chlorophenyl)-5-(4-(2-(2-(((2S,4R)-1-((S)-2-(1-fluorocyclopropane-1-carboxamido)-3,3-dimethylbutanoyl)-4-hydroxypyrrolidine-2-carboxamido)methyl)-5-(4-methylthiazol-5-yl)phenoxy)ethyl)piperazin-1-yl)picolinamide]
  SHP2 degradation (%) 10 nM: 22.7%
  SHP2 degradation (%) 100 nM: 93.2%

## Cc1ncsc1-c1ccc(CNC(=O)[C@@H]2C[C@@H](O)CN2C(=O)[C@@H](NC(=O)C2(F)CC2)C(C)(C)C)c(OCCCCN2CCN(CC(=O)Nc3cccc(Sc4cnc(N5CCC(C)(CN)CC5)cn4)c3Cl)C(=O)C2)c1 [Example 78, (2S,4R)—N-(2-(4-(4-(2-((3-((5-(4-(aminomethyl)-4-methylpiperidin-1-yl)pyrazin-2-yl)thio)-2-chlorophenyl)amino)-2-oxoethyl)-3-oxopiperazin-1-yl)butoxy)-4-(4-methylthiazol-5-yl)benzyl)-1-((S)-2-(1-fluorocyclopropane-1-carboxamido)-3,3-dimethylbutanoyl)-4-hydroxypyrrolidine-2-carboxamide]
  SHP2 degradation (%) 10 nM: 86.6%
  SHP2 degradation (%) 100 nM: 99.5%

## Cc1ncsc1-c1ccc(CNC(=O)[C@@H]2C[C@@H](O)CN2C(=O)[C@@H](NC(=O)C2(F)CC2)C(C)(C)C)c(OCC2CCN(C(=O)CC(=O)Nc3cccc(Sc4cnc(N5CCC(C)(CN)CC5)cn4)c3Cl)CC2)c1 [Example 31, (2S,4R)—N-(2-((1-(3-((3-((5-(4-(aminomethyl)-4-methylpiperidin-1-yl)pyrazin-2-yl)thio)-2-chlorophenyl)amino)-3-oxopropanoyl)piperidin-4-yl)methoxy)-4-(4-methylthiazol-5-yl)benzyl)-1-((S)-2-(1-fluorocyclopropane-1-carboxamido)-3,3-dimethylbutanoyl)-4-hydroxypyrrolidine-2-carboxamide]
  SHP2 degradation (%) 10 nM: 76%
  SHP2 degradation (%) 100 nM: 97%
  SHP2 degradation (%) 1000 nM: 97.5%

## Cc1ncsc1-c1ccc(CNC(=O)[C@@H]2C[C@@H](O)CN2C(=O)[C@@H](NC(=O)C2(F)CC2)C(C)(C)C)c(OC2CC3(CCN(c4cnc(C(=O)Nc5cccc(Sc6cnc(N7CCC(C)(CN)CC7)cn6)c5Cl)nc4)CC3)C2)c1 [Example 87, N-(3-((5-(4-(aminomethyl)-4-methylpiperidin-1-yl)pyrazin-2-yl)thio)-2-chlorophenyl)-5-(2-(2-(((2S,4R)-1-((S)-2-(1-fluorocyclopropane-1-carboxamido)-3,3-dimethylbutanoyl)-4-hydroxypyrrolidine-2-carboxamido)methyl)-5-(4-methylthiazol-5-yl)phenoxy)-7-azaspiro[3.5]nonan-7-yl)pyrimidine-2-carboxamide]
  SHP2 degradation (%) 10 nM: 9.1%
  SHP2 degradation (%) 100 nM: 45.5%

## Cc1ncsc1-c1ccc(CNC(=O)[C@@H]2C[C@@H](O)CN2C(=O)[C@@H](NC(=O)C2(F)CC2)C(C)(C)C)c(OCCCN2CCC(CC(=O)Nc3cccc(Sc4ncc(N5CCC(C)(CN)CC5)nc4N)c3Cl)CC2)c1 [Example 10, (2S,4R)—N-(2-(3-(4-(2-((3-((3-amino-5-(4-(aminomethyl)-4-methylpiperidin-1-yl)pyrazin-2-yl)thio)-2-chlorophenyl)amino)-2-oxoethyl)piperidin-1-yl)propoxy)-4-(4-methylthiazol-5-yl)benzyl)-1-((S)-2-(1-fluorocyclopropane-1-carboxamido)-3,3-dimethylbutanoyl)-4-hydroxypyrrolidine-2-carboxamide]
  SHP2 degradation (%) 10 nM: 33.7%
  SHP2 degradation (%) 100 nM: 90.9%
  SHP2 degradation (%) 1000 nM: 95.0%
